Source: patent publication US9850283B2, “Macrocyclic inhibitors of the PD-1/PD-L1 and CD80(B7-1)/PD-L1 protein/protein interactions” (BRISTOL-MYERS SQUIBB COMPANY, priority 2013, dated 2017)
Like-named read-outs stand apart in the source and are kept apart here. Positions of bridges follow the written chain, without caps; N, C: chain ends. Non-standard residues stand in square brackets, D forms with d. Residues, ends and D or L forms follow the SMILES beside them. Pro(trans-4-F) = O=C(O)[C@@H]1C[C@@H](F)CN1; Hyp = O=C(O)[C@@H]1C[C@@H](O)CN1; NMeNle = CCCC[C@H](NC)C(=O)O; NMeA = CN[C@@H](C)C(=O)O; Orn = NCCC[C@H](N)C(=O)O; Dab = NCC[C@H](N)C(=O)O; Sar = CNCC(=O)O

Experiments:
[1] = target: T1, LK35.2-hPD-L1 cells / PE-labeled PD-1-Ig (Homo sapiens, UniProt Q9NZQ7); assay: LK35.2-hPD-L1 cell binding high-content screening assay; assay type: cell-based; settings: cell binding assay, cell line not given
T1 construct: expressed in transfected cells; host or cells: LK35.2 mouse B cell line
In short: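 Binding of PE-conjugated human PD-1-Ig (1 nM final) to human PD-L1 stably expressed on a mouse B-cell line (LK35.2) was measured by high-content imaging after washes. Compound and labeled PD-1-Ig were co-incubated 1 h at 37 °C with cells in RPMI/10% FCS.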

[2] = target: T2, Human PD-L1/PD-1 (Homo sapiens, UniProt Q9NZQ7); assay: HTRF PD-1-Ig/PD-L1-His binding assay (human PD-L1)
T2 construct: made in house; host or cells: HEK293T
In short: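 Readout: time-resolved FRET between Eu cryptate-labeled anti-Ig (1 nM final) and APC-labeled anti-His (20 nM final) antibodies. These detect interaction of Fc-fused PD-1 with His-tagged human PD-L1 in dPBS containing 0.1% BSA and 0.05% Tween-20.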

[3] = cluster symbol, read-out: CBA IC50 cluster
[4] = cluster symbol, read-out: HTRF IC50 cluster

T2 sequence (Q9NZQ7 with tags, fused parts or gaps): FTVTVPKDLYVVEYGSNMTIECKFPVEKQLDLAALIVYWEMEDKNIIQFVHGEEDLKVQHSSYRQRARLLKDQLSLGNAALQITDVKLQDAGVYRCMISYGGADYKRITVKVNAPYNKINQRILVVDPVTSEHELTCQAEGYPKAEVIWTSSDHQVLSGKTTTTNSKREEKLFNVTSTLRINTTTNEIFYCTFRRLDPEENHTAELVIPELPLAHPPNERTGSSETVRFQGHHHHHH
T1 sequence (Q9NZQ7 19-290): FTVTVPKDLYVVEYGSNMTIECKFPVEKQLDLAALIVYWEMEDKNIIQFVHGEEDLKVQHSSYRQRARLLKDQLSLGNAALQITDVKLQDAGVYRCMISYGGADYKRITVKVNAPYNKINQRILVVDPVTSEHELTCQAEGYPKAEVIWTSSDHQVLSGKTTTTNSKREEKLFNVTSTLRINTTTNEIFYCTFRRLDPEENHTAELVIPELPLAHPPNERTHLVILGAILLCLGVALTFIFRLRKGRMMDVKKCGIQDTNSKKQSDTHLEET

| Structure (SMILES) | IC50 [1, 3] [nM] | IC50 [2, 4] [nM] | IC50 ([1]; value given instead of cluster, read-out: CBA IC50 value) [nM] | IC50 ([2]; value given instead of cluster, read-out: HTRF IC50 value) [nM] |
| --- | --- | --- | --- | --- |
| CCCC[C@H]1C(=O)N2CCC[C@@H]2C(=O)N[C@@H](CCCN)C(=O)N[C@H](C(=O)NCC(N)=O)CSCC(=O)N[C@@H](Cc2ccc(O)cc2)C(=O)N(C)[C@@H](C)C(=O)N[C@@H](CC(N)=O)C(=O)N2CCC[C@H]2C(=O)N[C@@H](Cc2cnc[nH]2)C(=O)N[C@@H](CC(C)C)C(=O)N2CCC[C@H]2C(=O)N[C@@H](Cc2c[nH]c3ccccc23)C(=O)N[C@@H](CO)C(=O)N[C@@H](Cc2c[nH]c3ccccc23)C(=O)N1C [Example 5011] (HELM PEPTIDE1{[O=C(C[*:3])[*:2]].Y.[meA].N.P.H.L.P.W.S.W.[CCCC[C@@H](C(=O)[*:2])N(C)[*:1]].[dP].[Orn].C.G.[am]}$PEPTIDE1,PEPTIDE1,1:R3-15:R3$$$V2.0) | 4.78 to 72.9 | 6.76 to 30.3 |  |  |
| CCCC[C@H]1C(=O)N(C)[C@@H](CCCC)C(=O)N[C@@H](CCCNC(=N)N)C(=O)N[C@H](C(=O)NCC(N)=O)CSCC(=O)N[C@@H](Cc2ccccc2)C(=O)N(C)[C@@H](C)C(=O)N[C@@H](CC(N)=O)C(=O)N2C[C@H](F)C[C@H]2C(=O)N[C@@H](Cc2cnc[nH]2)C(=O)N[C@@H](CC(C)C)C(=O)N(C)CC(=O)N[C@@H](Cc2c[nH]c3ccccc23)C(=O)N[C@@H](CO)C(=O)N[C@@H](Cc2c[nH]c3ccccc23)C(=O)N1C [Example 5012] ({CH2CO}-F[NMeA]N[Pro(trans-4-F)]HL[Sar]WSW[NMeNle][NMeNle]RCG-NH2; thioether N-14) | > 74.3 | > 30.5 |  |  |
| CCCC[C@H]1C(=O)N(C)[C@@H](CCCC)C(=O)N[C@@H](Cc2cnc[nH]2)C(=O)N[C@H](C(=O)NCC(N)=O)CSCC(=O)N[C@@H](Cc2ccccc2)C(=O)N(C)[C@@H](C)C(=O)N[C@@H](CC(N)=O)C(=O)N2CCC[C@H]2C(=O)N[C@@H](Cc2cnc[nH]2)C(=O)N[C@@H](CC(C)C)C(=O)N(C)CC(=O)N[C@@H](Cc2c[nH]c3ccccc23)C(=O)N[C@@H](CO)C(=O)N[C@@H](Cc2c[nH]c3ccccc23)C(=O)N1C [Example 5013] ({CH2CO}-F[NMeA]NPHL[Sar]WSW[NMeNle][NMeNle]HCG-NH2; thioether N-14) | > 74.3 | > 30.5 |  |  |
| CCCC[C@H]1C(=O)N(C)[C@@H](CCCC)C(=O)N[C@@H](CC(N)=O)C(=O)N[C@H](C(=O)NCC(N)=O)CSCC(=O)N[C@@H](Cc2ccccc2)C(=O)N(C)[C@@H](C)C(=O)N[C@@H](CC(N)=O)C(=O)N2CCC[C@H]2C(=O)N[C@@H](Cc2cnc[nH]2)C(=O)N[C@@H](CC(C)C)C(=O)N(C)CC(=O)N[C@@H](Cc2c[nH]c3ccccc23)C(=O)N[C@@H](CO)C(=O)N[C@@H](Cc2c[nH]c3ccccc23)C(=O)N1C [Example 5014] ({CH2CO}-F[NMeA]NPHL[Sar]WSW[NMeNle][NMeNle]NCG-NH2; thioether N-14) | 4.78 to 72.9 | 6.76 to 30.3 |  |  |
| CCCC[C@H]1C(=O)N(C)[C@@H](CCCC)C(=O)NCC(=O)N[C@H](C(=O)NCC(N)=O)CSCC(=O)N[C@@H](Cc2ccccc2)C(=O)N(C)[C@@H](C)C(=O)N[C@@H](CC(N)=O)C(=O)N2CCC[C@H]2C(=O)N[C@@H](Cc2cnc[nH]2)C(=O)N[C@@H](CC(C)C)C(=O)N(C)CC(=O)N[C@@H](Cc2c[nH]c3ccccc23)C(=O)N[C@@H](CO)C(=O)N[C@@H](Cc2c[nH]c3ccccc23)C(=O)N1C [Example 5015] ({CH2CO}-F[NMeA]NPHL[Sar]WSW[NMeNle][NMeNle]GCG-NH2; thioether N-14) | 4.78 to 72.9 | 6.76 to 30.3 |  |  |
| CCCC[C@H]1C(=O)N(C)[C@@H](CCCC)C(=O)N[C@@H](CC(C)C)C(=O)N[C@H](C(=O)NCC(N)=O)CSCC(=O)N[C@@H](Cc2ccccc2)C(=O)N(C)[C@@H](C)C(=O)N[C@@H](CC(N)=O)C(=O)N2CCC[C@H]2C(=O)N[C@@H](Cc2cnc[nH]2)C(=O)N[C@@H](CC(C)C)C(=O)N(C)CC(=O)N[C@@H](Cc2c[nH]c3ccccc23)C(=O)N[C@@H](CO)C(=O)N[C@@H](Cc2c[nH]c3ccccc23)C(=O)N1C [Example 5017] ({CH2CO}-F[NMeA]NPHL[Sar]WSW[NMeNle][NMeNle]LCG-NH2; thioether N-14) |  |  | 12.9 | 11.3 |
| CCCC[C@H]1C(=O)N(C)[C@@H](CCCC)C(=O)N[C@@H]([C@@H](C)CC)C(=O)N[C@H](C(=O)NCC(N)=O)CSCC(=O)N[C@@H](Cc2ccccc2)C(=O)N(C)[C@@H](C)C(=O)N[C@@H](CC(N)=O)C(=O)N2CCC[C@H]2C(=O)N[C@@H](Cc2cnc[nH]2)C(=O)N[C@@H](CC(C)C)C(=O)N(C)CC(=O)N[C@@H](Cc2c[nH]c3ccccc23)C(=O)N[C@@H](CO)C(=O)N[C@@H](Cc2c[nH]c3ccccc23)C(=O)N1C [Example 5018] ({CH2CO}-F[NMeA]NPHL[Sar]WSW[NMeNle][NMeNle]ICG-NH2; thioether N-14) | 4.78 to 72.9 | 6.76 to 30.3 |  |  |
| CCCC[C@H]1C(=O)N(C)[C@@H](CCCC)C(=O)N[C@@H](CCCNC(=N)N)C(=O)N[C@H](C(=O)NCC(N)=O)CSCC(=O)N[C@@H](Cc2ccccc2)C(=O)N(C)[C@@H](C)C(=O)N[C@@H]([C@@H](C)O)C(=O)N2CCC[C@H]2C(=O)N[C@@H](Cc2cnc[nH]2)C(=O)N[C@@H](CC(C)C)C(=O)N(C)CC(=O)N[C@@H](Cc2c[nH]c3ccccc23)C(=O)N[C@@H](CO)C(=O)N[C@@H](Cc2c[nH]c3ccccc23)C(=O)N1C [Example 5020] ({CH2CO}-F[NMeA]TPHL[Sar]WSW[NMeNle][NMeNle]RCG-NH2; thioether N-14) | > 74.3 | > 30.5 |  |  |
| CCCC[C@H]1C(=O)N(C)[C@@H](CCCC)C(=O)N[C@@H](CCCNC(=N)N)C(=O)N[C@H](C(=O)NCC(N)=O)CSCC(=O)N[C@@H](Cc2ccc(O)cc2)C(=O)N(C)[C@@H](C)C(=O)N[C@@H](CC(N)=O)C(=O)N2CCC[C@H]2C(=O)N[C@@H](Cc2cnc[nH]2)C(=O)N[C@@H](CCN)C(=O)N2C[C@H](O)C[C@H]2C(=O)N[C@@H](Cc2c[nH]c3ccccc23)C(=O)N[C@@H](CO)C(=O)N[C@@H](Cc2c[nH]c3ccccc23)C(=O)N1C [Example 5022] ({CH2CO}-Y[NMeA]NPH[Dab][Hyp]WSW[NMeNle][NMeNle]RCG-NH2; thioether N-14) | 0.158 to 4.71 | 6.76 to 30.3 |  |  |

Continued, values first:

| IC50 [1, 3] [nM] | IC50 [2, 4] [nM] | IC50 ([1]; value given instead of cluster, read-out: CBA IC50 value) [nM] | IC50 ([2]; value given instead of cluster, read-out: HTRF IC50 value) [nM] | Structure (SMILES) |
| --- | --- | --- | --- | --- |
| 4.78 to 72.9 | 6.76 to 30.3 |  |  | CCCC[C@H]1C(=O)N(C)[C@@H](CCCC)C(=O)N[C@@H](C(C)C)C(=O)N[C@H](C(=O)NCC(N)=O)CSCC(=O)N[C@@H](Cc2ccccc2)C(=O)N(C)[C@@H](C)C(=O)N[C@@H](CC(N)=O)C(=O)N2CCC[C@H]2C(=O)N[C@@H](Cc2cnc[nH]2)C(=O)N[C@@H](CC(C)C)C(=O)N(C)CC(=O)N[C@@H](Cc2c[nH]c3ccccc23)C(=O)N[C@@H](CO)C(=O)N[C@@H](Cc2c[nH]c3ccccc23)C(=O)N1C [Example 5016] ({CH2CO}-F[NMeA]NPHL[Sar]WSW[NMeNle][NMeNle]VCG-NH2; thioether N-14) |
| 4.78 to 72.9 | 6.76 to 30.3 |  |  | CCCC[C@H]1C(=O)N(C)[C@@H](CCCC)C(=O)N[C@@H](CCCNC(=N)N)C(=O)N[C@H](C(=O)NCC(N)=O)CSCC(=O)N[C@@H](Cc2ccccc2)C(=O)N(C)[C@@H](C)C(=O)N[C@@H](CO)C(=O)N2CCC[C@H]2C(=O)N[C@@H](Cc2cnc[nH]2)C(=O)N[C@@H](CC(C)C)C(=O)N(C)CC(=O)N[C@@H](Cc2c[nH]c3ccccc23)C(=O)N[C@@H](CO)C(=O)N[C@@H](Cc2c[nH]c3ccccc23)C(=O)N1C [Example 5019] ({CH2CO}-F[NMeA]SPHL[Sar]WSW[NMeNle][NMeNle]RCG-NH2; thioether N-14) |
| > 74.3 | > 30.5 |  |  | CCCC[C@H]1C(=O)N(C)[C@@H](CCCC)C(=O)N[C@@H]([C@@H](C)O)C(=O)N[C@H](C(=O)NCC(N)=O)CSCC(=O)N[C@@H](Cc2ccccc2)C(=O)N(C)[C@@H](C)C(=O)N[C@@H](CC(N)=O)C(=O)N2CCC[C@H]2C(=O)N[C@@H](Cc2cnc[nH]2)C(=O)N[C@@H](CC(C)C)C(=O)N(C)CC(=O)N[C@@H](Cc2c[nH]c3ccccc23)C(=O)N[C@@H](CO)C(=O)N[C@@H](Cc2c[nH]c3ccccc23)C(=O)N1C [Example 5021] ({CH2CO}-F[NMeA]NPHL[Sar]WSW[NMeNle][NMeNle]TCG-NH2; thioether N-14) |
| 4.78 to 72.9 | 6.76 to 30.3 |  |  | CCCC[C@H]1C(=O)N(C)[C@@H](CCCC)C(=O)N[C@@H](CCCNC(=N)N)C(=O)N[C@H](C(=O)NCC(N)=O)CSCC(=O)N[C@@H](Cc2ccc(O)cc2)C(=O)N(C)[C@@H](C)C(=O)N[C@@H](CC(N)=O)C(=O)N2CCC[C@H]2C(=O)N[C@@H](Cc2cnc[nH]2)C(=O)N[C@@H](CCCN)C(=O)N2C[C@H](O)C[C@H]2C(=O)N[C@@H](Cc2c[nH]c3ccccc23)C(=O)N[C@@H](CO)C(=O)N[C@@H](Cc2c[nH]c3ccccc23)C(=O)N1C [Example 5023] ({CH2CO}-Y[NMeA]NPH[Orn][Hyp]WSW[NMeNle][NMeNle]RCG-NH2; thioether N-14) |
| 0.158 to 4.71 | 0.385 to 6.74 |  |  | CCCC[C@H]1C(=O)N(C)[C@@H](CCCC)C(=O)N[C@@H](CCCNC(=N)N)C(=O)N[C@H](C(=O)NCC(N)=O)CSCC(=O)N[C@@H](Cc2ccc(O)cc2)C(=O)N(C)[C@@H](C)C(=O)N[C@@H](CC(N)=O)C(=O)N2CCC[C@H]2C(=O)N[C@@H](Cc2cnc[nH]2)C(=O)N[C@@H](CCCCN)C(=O)N2C[C@H](O)C[C@H]2C(=O)N[C@@H](Cc2c[nH]c3ccccc23)C(=O)N[C@@H](CO)C(=O)N[C@@H](Cc2c[nH]c3ccccc23)C(=O)N1C [Example 5024] ({CH2CO}-Y[NMeA]NPHK[Hyp]WSW[NMeNle][NMeNle]RCG-NH2; thioether N-14) |
